According to ChEMBL document CHEMBL2375322, “Synthesis using microwave irradiation and antibacterial evaluation of new N,O-acetals and N,S-acetals derived from 2-amino-1,4-naphthoquinones” (2013):
≈ marks a conversion by molar mass, not a printed value. Calls of active or inactive are those of the source. The calls are words filed in the database; no cut-off is given here.

What was measured:
Assay type in all cases: functional
Pseudomonas aeruginosa [1] = assay: Antibacterial activity against Pseudomonas aeruginosa after 18 to 24 hrs by disc diffusion assay
[2] = test system: Staphylococcus haemolyticus; assay: Antibacterial activity against oxacillin-resistant Staphylococcus haemolyticus after 18 to 24 hrs by disc diffusion assay
Klebsiella pneumoniae [3] = assay: Antibacterial activity against Klebsiella pneumoniae after 18 to 24 hrs by disc diffusion assay
[4] = test system: Staphylococcus epidermidis; assay: Antibacterial activity against oxacillin-resistant Staphylococcus epidermidis after 18 to 24 hrs by disc diffusion assay
Staphylococcus aureus [5] = assay: Antibacterial activity against oxacillin-resistant Staphylococcus aureus after 18 to 24 hrs by disc diffusion assay
Staphylococcus aureus [6] = assay: Antibacterial activity against methicillin-resistant Staphylococcus aureus after 18 to 24 hrs by disc diffusion assay
Staphylococcus aureus [7] = assay: Antibacterial activity against Staphylococcus aureus after 18 to 24 hrs by disc diffusion assay
Staphylococcus aureus [8] = assay: Antibacterial activity against Staphylococcus aureus ATCC 25923 after 18 to 24 hrs by disc diffusion assay
Klebsiella pneumoniae [9] = assay: Antibacterial activity against Klebsiella pneumoniae after 18 to 24 hrs by broth macrodilution method
Pseudomonas aeruginosa [10] = assay: Antibacterial activity against Pseudomonas aeruginosa after 18 to 24 hrs by broth macrodilution method
[11] = test system: Staphylococcus haemolyticus; assay: Antibacterial activity against oxacillin-resistant Staphylococcus haemolyticus after 18 to 24 hrs by broth macrodilution method
[12] = test system: Staphylococcus epidermidis; assay: Antibacterial activity against oxacillin-resistant Staphylococcus epidermidis after 18 to 24 hrs by broth macrodilution method
Staphylococcus aureus [13] = assay: Antibacterial activity against oxacillin-resistant Staphylococcus aureus after 18 to 24 hrs by broth macrodilution method
Staphylococcus aureus [14] = assay: Antibacterial activity against methicillin-resistant Staphylococcus aureus after 18 to 24 hrs by broth macrodilution method
Staphylococcus aureus [15] = assay: Antibacterial activity against Staphylococcus aureus after 18 to 24 hrs by broth macrodilution method
Staphylococcus aureus [16] = assay: Antibacterial activity against Staphylococcus aureus ATCC 25923 after 18 to 24 hrs by broth macrodilution method

Compound	inhibition (Pseudomonas aeruginosa [1])	inhibition [2]	inhibition (Klebsiella pneumoniae [3])	inhibition [4]	inhibition (Staphylococcus aureus [5])	inhibition (Staphylococcus aureus [6])	inhibition (Staphylococcus aureus [7])	inhibition (Staphylococcus aureus [8])	other results
CC1=C(NCSc2ccccc2)C(=O)c2ccccc2C1=O	inactive	inactive	inactive	inactive	inactive	inactive	inactive	inactive	
O=C1C=C(NCOCc2cn(-c3ccccc3)nn2)C(=O)c2ccccc21	inactive	inactive	inactive	inactive	inactive	inactive	inactive	inactive	
C#CCOCNC1=CC(=O)c2ccccc2C1=O									MIC (Klebsiella pneumoniae [9]): ≥ 256 µg/mL; MIC (Pseudomonas aeruginosa [10]): 16 µg/mL (≈ 66.3 µM); MIC [11]: 32 µg/mL (≈ 133 µM); MIC [12]: 16 µg/mL (≈ 66.3 µM); MIC (Staphylococcus aureus [13]): 256 µg/mL (≈ 1060 µM); MIC (Staphylococcus aureus [14]): 64 µg/mL (≈ 265 µM); MIC (Staphylococcus aureus [15]): 32 µg/mL (≈ 133 µM); MIC (Staphylococcus aureus [16]): 32 µg/mL (≈ 133 µM); diameter of the inhibition zone (DIZ) (Pseudomonas aeruginosa [1]): 18 mm; diameter of the inhibition zone (DIZ) [2]: 18 mm; diameter of the inhibition zone (DIZ) (Klebsiella pneumoniae [3]): 0 mm; diameter of the inhibition zone (DIZ) [4]: 10 mm; diameter of the inhibition zone (DIZ) (Staphylococcus aureus [5]): 12 mm; diameter of the inhibition zone (DIZ) (Staphylococcus aureus [6]): 16 mm; diameter of the inhibition zone (DIZ) (Staphylococcus aureus [7]): 20 mm; diameter of the inhibition zone (DIZ) (Staphylococcus aureus [8]): 16 mm
COc1ccc(SCNC2=CC(=O)c3ccccc3C2=O)cc1	inactive	inactive	inactive	inactive	inactive	inactive	inactive	inactive	
CCOCNC1=CC(=O)c2ccccc2C1=O									MIC (Klebsiella pneumoniae [9]): ≥ 256 µg/mL; MIC (Pseudomonas aeruginosa [10]): 128 µg/mL (≈ 554 µM); MIC [11]: 64 µg/mL (≈ 277 µM); MIC [12]: 16 µg/mL (≈ 69.2 µM); MIC (Staphylococcus aureus [13]): 32 µg/mL (≈ 138 µM); MIC (Staphylococcus aureus [14]): 32 µg/mL (≈ 138 µM); MIC (Staphylococcus aureus [15]): 4 µg/mL (≈ 17.3 µM); MIC (Staphylococcus aureus [16]): 8 µg/mL (≈ 34.6 µM); diameter of the inhibition zone (DIZ) (Pseudomonas aeruginosa [1]): 14 mm; diameter of the inhibition zone (DIZ) [2]: 16 mm; diameter of the inhibition zone (DIZ) (Klebsiella pneumoniae [3]): 0 mm; diameter of the inhibition zone (DIZ) [4]: 10 mm; diameter of the inhibition zone (DIZ) (Staphylococcus aureus [5]): 17 mm; diameter of the inhibition zone (DIZ) (Staphylococcus aureus [6]): 14 mm; diameter of the inhibition zone (DIZ) (Staphylococcus aureus [7]): 18 mm; diameter of the inhibition zone (DIZ) (Staphylococcus aureus [8]): 15 mm
CSc1ccc(SCNC2=CC(=O)c3ccccc3C2=O)cc1	inactive	inactive	inactive	inactive	inactive	inactive	inactive	inactive	
O=C1C=C(NCSc2ccc(F)cc2)C(=O)c2ccccc21	inactive	inactive	inactive	inactive	inactive	inactive	inactive	inactive	
COCNC1=CC(=O)c2ccccc2C1=O									MIC (Klebsiella pneumoniae [9]): 256 µg/mL (≈ 1180 µM); MIC (Pseudomonas aeruginosa [10]): ≥ 256 µg/mL; MIC [11]: 16 µg/mL (≈ 73.7 µM); MIC [12]: 8 µg/mL (≈ 36.8 µM); MIC (Staphylococcus aureus [13]): 16 µg/mL (≈ 73.7 µM); MIC (Staphylococcus aureus [14]): 16 µg/mL (≈ 73.7 µM); MIC (Staphylococcus aureus [15]): 16 µg/mL (≈ 73.7 µM); MIC (Staphylococcus aureus [16]): 16 µg/mL (≈ 73.7 µM); diameter of the inhibition zone (DIZ) (Pseudomonas aeruginosa [1]): 0 mm; diameter of the inhibition zone (DIZ) [2]: 20 mm; diameter of the inhibition zone (DIZ) (Klebsiella pneumoniae [3]): 17 mm; diameter of the inhibition zone (DIZ) [4]: 14 mm; diameter of the inhibition zone (DIZ) (Staphylococcus aureus [5]): 18 mm; diameter of the inhibition zone (DIZ) (Staphylococcus aureus [6]): 16 mm; diameter of the inhibition zone (DIZ) (Staphylococcus aureus [7]): 24 mm; diameter of the inhibition zone (DIZ) (Staphylococcus aureus [8]): 17 mm
CC(C)(C)OCNC1=CC(=O)c2ccccc2C1=O	inactive	inactive	inactive	inactive	inactive	inactive	inactive	inactive	
Cc1ccccc1SCNC1=CC(=O)c2ccccc2C1=O	inactive	inactive	inactive	inactive	inactive	inactive	inactive	inactive	
CN[C@H](CC(C)C)C(=O)N[C@H]1C(=O)N[C@@H](CC(N)=O)C(=O)N[C@H]2C(=O)N[C@H]3C(=O)N[C@H](C(=O)N[C@H](C(=O)O)c4cc(O)cc(O)c4-c4cc3ccc4O)[C@H](O)c3ccc(c(Cl)c3)Oc3cc2cc(c3O[C@@H]2O[C@H](CO)[C@@H](O)[C@H](O)[C@H]2O[C@H]2C[C@](C)(N)[C@H](O)[C@H](C)O2)Oc2ccc(cc2Cl)[C@H]1O [VANCOMYCIN]									MIC [11]: 2 µg/mL (≈ 1.38 µM); diameter of the inhibition zone (DIZ) [2]: 16 mm; diameter of the inhibition zone (DIZ) [4]: 16 mm; diameter of the inhibition zone (DIZ) (Staphylococcus aureus [5]): 16 mm; diameter of the inhibition zone (DIZ) (Staphylococcus aureus [6]): 16 mm; diameter of the inhibition zone (DIZ) (Staphylococcus aureus [7]): 16 mm; diameter of the inhibition zone (DIZ) (Staphylococcus aureus [8]): 16 mm
O=C1C=C(NCOCc2ccccc2)C(=O)c2ccccc21	inactive	inactive	inactive	inactive	inactive	inactive	inactive	inactive	
O=C1C=C(NCSc2ccccc2)C(=O)c2ccccc21	inactive	inactive	inactive	inactive	inactive	inactive	inactive	inactive	
Cc1ccc(SCNC2=CC(=O)c3ccccc3C2=O)cc1	inactive	inactive	inactive	inactive	inactive	inactive	inactive	inactive	
CC(C)OCNC1=CC(=O)c2ccccc2C1=O	inactive	inactive	inactive	inactive	inactive	inactive	inactive	inactive	
O=C(O)c1cn(C2CC2)c2cc(N3CCNCC3)c(F)cc2c1=O [CIPROFLOXACIN]									MIC (Klebsiella pneumoniae [9]): 1 µg/mL (≈ 3.02 µM); MIC (Pseudomonas aeruginosa [10]): 1 µg/mL (≈ 3.02 µM); diameter of the inhibition zone (DIZ) (Pseudomonas aeruginosa [1]): 22 mm; diameter of the inhibition zone (DIZ) (Klebsiella pneumoniae [3]): 22 mm
CCCSCNC1=CC(=O)c2ccccc2C1=O	inactive	inactive	inactive	inactive	inactive	inactive	inactive	inactive	
